# Patent publication US8759504B2, “Cholinergic/serotoninergic receptor and uses thereof” (AbbVie Inc., priority 2007, dated 2014)
# pEC50, pIC50: −log10 of the molar value. Entries after “also recorded” stand apart in the source; their conditions may differ. Marks after values point to notes of the source that are not given here.
# How the values were obtained:
# [1] = molecular target: T1, wild-type α7 nicotinic acetylcholine receptor (Homo sapiens, UniProt P36544); experiment: Two electrode voltage clamp in Xenopus oocytes, agonist and modulator responses; format: cell-based
# T1 construct: expressed in transfected cells; host or cells: Xenopus laevis oocytes
# [2] = molecular target: T2, wild-type human 5-HT3A receptors (Homo sapiens, UniProt P46098); experiment: as above; format: cell-based
# T2 construct: expressed in transfected cells; host or cells: Xenopus laevis oocytes
# T2 sequence (P46098 1-484 isoform P46098-4): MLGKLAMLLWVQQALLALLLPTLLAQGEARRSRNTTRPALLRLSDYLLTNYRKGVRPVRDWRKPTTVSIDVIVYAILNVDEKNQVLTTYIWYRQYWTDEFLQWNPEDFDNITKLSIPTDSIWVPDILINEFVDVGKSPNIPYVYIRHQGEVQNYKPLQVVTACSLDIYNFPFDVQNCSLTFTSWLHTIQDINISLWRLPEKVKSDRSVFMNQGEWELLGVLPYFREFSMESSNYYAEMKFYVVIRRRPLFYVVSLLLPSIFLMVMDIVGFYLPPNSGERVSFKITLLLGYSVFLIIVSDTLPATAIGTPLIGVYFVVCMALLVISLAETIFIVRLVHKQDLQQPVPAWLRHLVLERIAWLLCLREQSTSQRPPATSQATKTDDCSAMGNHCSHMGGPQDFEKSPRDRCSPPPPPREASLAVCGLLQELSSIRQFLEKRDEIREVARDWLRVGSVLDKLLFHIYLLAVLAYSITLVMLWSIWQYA
# [3] = molecular target: T3, rat brain α7* nicotinic acetylcholine receptors (Rattus norvegicus, UniProt Q05941); experiment: [3H]A-585539 radioligand binding, rat brain homogenates
# T3 construct: expressed both as a native (rat cortex) or α7/5-HT3 chimeric receptor; from tissue; host or cells: rat brain / rat cortex homogenates
# [4] = molecular target: T4, Chimera 1 (Homo sapiens, UniProt P36544, M226I/T225V); experiment: Membrane potential imaging (FLIPR-FMP) in HEK-293 cells; format: cell-based; parameters: expressed in transfected cells; conditions: for Modulation of submaximum agonist-evoked membrane potential response (words): HEK-293 cells, FMP
# [5] = molecular target: T5, Chimera 2 (Homo sapiens, UniProt P36544, M226I/T225V); experiment: as above; format: cell-based; parameters: expressed in transfected cells; conditions: for Modulation of submaximum agonist-evoked membrane potential response (words): HEK-293 cells, FMP
# [6] = molecular target: T5, Chimera 2; experiment: [3H]A-585539 radioligand binding, HEK-293 membranes/homogenates; parameters: expressed in transfected cells
# [7] = molecular target: T5, Chimera 2; experiment: Whole cell patch clamp in HEK-293 cells; format: cell-based; parameters: expressed in transfected cells
# [8] = molecular target: T4, Chimera 1; experiment: Two electrode voltage clamp in Xenopus oocytes (POETs), agonist and modulator responses; format: cell-based; parameters: expressed in transfected cells; host or cells: Xenopus laevis oocytes (transient, A1)
# [9] = molecular target: T5, Chimera 2; experiment: as above; format: cell-based; parameters: expressed in transfected cells; host or cells: Xenopus laevis oocytes (transient, A2)
# T4 sequence (P36544 with tags, fused parts or gaps T225V/M226I): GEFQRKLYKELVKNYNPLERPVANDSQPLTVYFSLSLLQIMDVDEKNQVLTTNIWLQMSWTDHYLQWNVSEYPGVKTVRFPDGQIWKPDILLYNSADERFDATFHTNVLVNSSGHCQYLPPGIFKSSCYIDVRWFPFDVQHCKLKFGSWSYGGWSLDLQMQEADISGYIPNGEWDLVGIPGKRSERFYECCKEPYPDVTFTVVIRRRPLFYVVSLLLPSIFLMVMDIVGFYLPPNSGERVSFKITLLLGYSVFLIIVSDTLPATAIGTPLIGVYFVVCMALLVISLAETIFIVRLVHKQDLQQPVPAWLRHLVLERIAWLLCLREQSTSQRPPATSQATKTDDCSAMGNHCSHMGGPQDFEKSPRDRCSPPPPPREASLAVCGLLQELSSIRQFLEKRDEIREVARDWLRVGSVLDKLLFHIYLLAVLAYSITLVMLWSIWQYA
# T1 sequence (P36544 23-502): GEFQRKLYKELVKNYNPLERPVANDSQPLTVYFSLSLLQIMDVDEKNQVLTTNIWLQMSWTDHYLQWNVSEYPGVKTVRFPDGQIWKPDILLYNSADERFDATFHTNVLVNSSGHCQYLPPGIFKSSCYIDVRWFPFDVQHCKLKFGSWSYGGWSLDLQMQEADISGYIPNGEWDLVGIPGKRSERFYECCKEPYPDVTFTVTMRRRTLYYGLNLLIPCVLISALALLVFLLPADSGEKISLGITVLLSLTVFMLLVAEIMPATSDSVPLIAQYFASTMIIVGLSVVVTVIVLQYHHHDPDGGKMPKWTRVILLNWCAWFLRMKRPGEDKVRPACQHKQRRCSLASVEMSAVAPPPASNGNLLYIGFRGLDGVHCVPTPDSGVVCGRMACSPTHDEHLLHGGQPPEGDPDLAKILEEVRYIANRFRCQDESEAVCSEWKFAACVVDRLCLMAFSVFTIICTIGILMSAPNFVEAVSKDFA
# T5 sequence (P36544 with tags, fused parts or gaps T225V/M226I): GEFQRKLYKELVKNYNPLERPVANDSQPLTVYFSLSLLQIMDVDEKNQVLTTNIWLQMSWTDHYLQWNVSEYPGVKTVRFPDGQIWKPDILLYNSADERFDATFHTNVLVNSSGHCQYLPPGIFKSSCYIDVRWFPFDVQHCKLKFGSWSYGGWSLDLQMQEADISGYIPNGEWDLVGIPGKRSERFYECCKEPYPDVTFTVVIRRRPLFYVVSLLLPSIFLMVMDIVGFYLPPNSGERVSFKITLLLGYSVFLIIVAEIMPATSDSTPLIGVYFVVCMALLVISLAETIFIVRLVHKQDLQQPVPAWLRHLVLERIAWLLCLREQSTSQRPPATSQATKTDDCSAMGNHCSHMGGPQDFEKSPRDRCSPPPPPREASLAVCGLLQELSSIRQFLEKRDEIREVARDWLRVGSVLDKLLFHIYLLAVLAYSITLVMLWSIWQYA
# T3 sequence (Q05941 23-502): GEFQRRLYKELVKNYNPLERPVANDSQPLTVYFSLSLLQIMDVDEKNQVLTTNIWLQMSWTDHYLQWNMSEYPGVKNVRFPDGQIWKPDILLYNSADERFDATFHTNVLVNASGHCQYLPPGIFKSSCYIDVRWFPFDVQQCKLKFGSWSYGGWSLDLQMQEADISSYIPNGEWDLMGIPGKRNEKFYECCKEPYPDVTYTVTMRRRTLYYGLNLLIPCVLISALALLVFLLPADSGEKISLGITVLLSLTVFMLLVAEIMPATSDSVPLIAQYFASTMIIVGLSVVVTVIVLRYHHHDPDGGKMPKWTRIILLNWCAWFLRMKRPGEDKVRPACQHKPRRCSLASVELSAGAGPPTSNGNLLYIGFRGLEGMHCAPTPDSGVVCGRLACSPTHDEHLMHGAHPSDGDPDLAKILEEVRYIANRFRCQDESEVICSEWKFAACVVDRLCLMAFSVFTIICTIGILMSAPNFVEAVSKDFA
smiles,measurement,setting,value
"O=c1c(-c2ccc(O)cc2)coc2cc(O)cc(O)c12 [Genistein, genistein]",Percentage potentiation of submaximum agonist-evoked responses (mean±S.E.M.),[1]; 100 μM ACh,246±17%
same,pEC50,"[1]; Positive allosteric modulation potency, two electrode voltage clamp: EC50 (95% C.I.), submaximum ACh (100 μM)-evoked response",4.97
same,Direct current activation by modulator alone,[1]; Xenopus oocytes,did not activate currents
same,Effect of modulator on ACh-evoked current (words),[1]; Xenopus oocytes,primarily increasing the current amplitude
same,Fold increase of submaximum ACh-evoked currents,[1]; Xenopus oocytes,2-3 fold
same,Percentage potentiation of submaximum agonist-evoked responses (mean±S.E.M.),[2]; 1-3 μM 5-HT,52±7%
same,Direct current activation by modulator alone,[2]; Xenopus oocytes,did not activate currents
same,Effect of modulator on agonist (5-HT)-evoked current,[2]; Xenopus oocytes,Neither compound increased the responses
same,Observed % inhibitory effect on submaximum 5-HT-evoked response,[2]; at 30 μM,~48%^a at 30
same,inhibition at 30 µM,"[2]; at 30 μM, read-out: Observed % inhibitory effect on submaximum 5-HT-evoked response",~50%
same,Effect on [3H]A-585539 saturation binding,[3]; 10 μM,did not alter the saturation profile; also recorded: did not alter the saturation binding
same,Competition / displacement of [3H]A-585539 binding,"[3]; rat cortex, increasing concentrations",neither compound effectively displaced the binding
same,Modulation of submaximum agonist-evoked membrane potential response (words),[4],unable to do so
same,Modulation of submaximum agonist-evoked membrane potential response (words),[4]; listed as genistein,not effective as positive allosteric modulator; also recorded: inhibited Chimera 1
same,pIC50,"[4]; read-out: FMP imaging: IC50 (95% C.I.), inhibition of agonist-evoked response, submaximum NS6784",4.63
same,Maximum positive allosteric modulation efficacy,[4]; submaximum NS6784 120-200 nM,14±3%
same,Modulation of submaximum agonist-evoked membrane potential response (words),[5],enhanced agonist-evoked depolarization
same,Modulation of submaximum agonist-evoked membrane potential response (words),[5]; listed as genestein,very effective
same,Modulation of submaximum agonist-evoked membrane potential response (words),[5]; listed as genistein,potentiated submaximum NS6784 evoked responses; also recorded: potentiated Chimera 2 receptors
same,pEC50,"[5]; read-out: FMP imaging: positive allosteric modulation EC50 (95% C.I.), submaximum NS6784 (60-70 nM)",5.37
same,Maximum positive allosteric modulation efficacy,[5]; submaximum NS6784 60-70 nM,221±30%
same,Effect on [3H]A-585539 saturation binding,[6]; 10 μM,did not alter the saturation profile; also recorded: did not alter the saturation binding
same,Competition / displacement of [3H]A-585539 binding,[6]; increasing concentrations,neither compound effectively displaced the binding
same,Directly evoked peak response normalized to 100 μM ACh,[7]; 100 μM,72.6±22.2%
same,Directly evoked total charge (integral) normalized to 100 μM ACh,[7]; 100 μM,162.5±5.3%
same,Direct current activation by modulator alone,"[7]; genistein 100 μM, 5-HI 10 mM",directly activated the Chimera 2 receptor current
same,Positive allosteric modulation of ACh-evoked current,"[7]; genistein 30-50 μM, 5-HI 1 mM",effective as positive allosteric modulators
same,Percentage potentiation of submaximum agonist-evoked responses (mean±S.E.M.),[8]; 100 μM ACh,65±27%
same,Direct current activation by modulator alone,[8]; Xenopus oocytes,did not activate currents
same,inhibition at 100 µM,[8]; read-out: Observed % inhibitory effect on submaximum ACh-evoked response,~35%
same,Percentage potentiation of submaximum agonist-evoked responses (mean±S.E.M.),[9]; 10-30 μM ACh,234±19%
same,Direct current activation by modulator alone,[9]; Xenopus oocytes,activated currents at 30 and 100 μM; also recorded: evoked unique agonist-like current
same,Effect of modulator on ACh-evoked current (words),[9]; Xenopus oocytes,potentiated peak amplitude of ACh current responses
same,Fold increase of submaximum ACh-evoked currents,[9]; Xenopus oocytes,2-3 fold
same,Effect of modulator on ACh-evoked current (words),"[9]; Xenopus oocytes, listed as genestein",potentiated ACh responses in Chimera 2
same,pEC50,"[9]; read-out: Positive allosteric modulation potency, two electrode voltage clamp: EC50 (95% C.I.)",5.28
